Molecular target: Serine/threonine-protein kinase ATR (Homo sapiens, UniProt Q13535)
Test: ATR Biochemical Potency Assay
Method: ATR enzyme was made by ChemPartner (batch: CP-ATR-20161102-M2). 2× enzyme solutions were prepared in 1× kinase base buffer. 10 μl of 2× enzyme solution (final concentration: 2.5 nM) was added to each well of the 384-well assay plate containing 60 nl compound in each well. The plate was incubated at room temperature for 10 minutes. 2× peptide solutions were prepared with FAM-labeled peptide and ATP in the 1× kinase base buffer. 10 μl of 2× peptide solution was added to each well of the 384-well assay plate, which was incubated at 28° C. for 240 min. 40 μl of stop buffer was added to stop reaction. Data were collected by Caliper.

Sequence of Serine/threonine-protein kinase ATR (Q13535 whole entry): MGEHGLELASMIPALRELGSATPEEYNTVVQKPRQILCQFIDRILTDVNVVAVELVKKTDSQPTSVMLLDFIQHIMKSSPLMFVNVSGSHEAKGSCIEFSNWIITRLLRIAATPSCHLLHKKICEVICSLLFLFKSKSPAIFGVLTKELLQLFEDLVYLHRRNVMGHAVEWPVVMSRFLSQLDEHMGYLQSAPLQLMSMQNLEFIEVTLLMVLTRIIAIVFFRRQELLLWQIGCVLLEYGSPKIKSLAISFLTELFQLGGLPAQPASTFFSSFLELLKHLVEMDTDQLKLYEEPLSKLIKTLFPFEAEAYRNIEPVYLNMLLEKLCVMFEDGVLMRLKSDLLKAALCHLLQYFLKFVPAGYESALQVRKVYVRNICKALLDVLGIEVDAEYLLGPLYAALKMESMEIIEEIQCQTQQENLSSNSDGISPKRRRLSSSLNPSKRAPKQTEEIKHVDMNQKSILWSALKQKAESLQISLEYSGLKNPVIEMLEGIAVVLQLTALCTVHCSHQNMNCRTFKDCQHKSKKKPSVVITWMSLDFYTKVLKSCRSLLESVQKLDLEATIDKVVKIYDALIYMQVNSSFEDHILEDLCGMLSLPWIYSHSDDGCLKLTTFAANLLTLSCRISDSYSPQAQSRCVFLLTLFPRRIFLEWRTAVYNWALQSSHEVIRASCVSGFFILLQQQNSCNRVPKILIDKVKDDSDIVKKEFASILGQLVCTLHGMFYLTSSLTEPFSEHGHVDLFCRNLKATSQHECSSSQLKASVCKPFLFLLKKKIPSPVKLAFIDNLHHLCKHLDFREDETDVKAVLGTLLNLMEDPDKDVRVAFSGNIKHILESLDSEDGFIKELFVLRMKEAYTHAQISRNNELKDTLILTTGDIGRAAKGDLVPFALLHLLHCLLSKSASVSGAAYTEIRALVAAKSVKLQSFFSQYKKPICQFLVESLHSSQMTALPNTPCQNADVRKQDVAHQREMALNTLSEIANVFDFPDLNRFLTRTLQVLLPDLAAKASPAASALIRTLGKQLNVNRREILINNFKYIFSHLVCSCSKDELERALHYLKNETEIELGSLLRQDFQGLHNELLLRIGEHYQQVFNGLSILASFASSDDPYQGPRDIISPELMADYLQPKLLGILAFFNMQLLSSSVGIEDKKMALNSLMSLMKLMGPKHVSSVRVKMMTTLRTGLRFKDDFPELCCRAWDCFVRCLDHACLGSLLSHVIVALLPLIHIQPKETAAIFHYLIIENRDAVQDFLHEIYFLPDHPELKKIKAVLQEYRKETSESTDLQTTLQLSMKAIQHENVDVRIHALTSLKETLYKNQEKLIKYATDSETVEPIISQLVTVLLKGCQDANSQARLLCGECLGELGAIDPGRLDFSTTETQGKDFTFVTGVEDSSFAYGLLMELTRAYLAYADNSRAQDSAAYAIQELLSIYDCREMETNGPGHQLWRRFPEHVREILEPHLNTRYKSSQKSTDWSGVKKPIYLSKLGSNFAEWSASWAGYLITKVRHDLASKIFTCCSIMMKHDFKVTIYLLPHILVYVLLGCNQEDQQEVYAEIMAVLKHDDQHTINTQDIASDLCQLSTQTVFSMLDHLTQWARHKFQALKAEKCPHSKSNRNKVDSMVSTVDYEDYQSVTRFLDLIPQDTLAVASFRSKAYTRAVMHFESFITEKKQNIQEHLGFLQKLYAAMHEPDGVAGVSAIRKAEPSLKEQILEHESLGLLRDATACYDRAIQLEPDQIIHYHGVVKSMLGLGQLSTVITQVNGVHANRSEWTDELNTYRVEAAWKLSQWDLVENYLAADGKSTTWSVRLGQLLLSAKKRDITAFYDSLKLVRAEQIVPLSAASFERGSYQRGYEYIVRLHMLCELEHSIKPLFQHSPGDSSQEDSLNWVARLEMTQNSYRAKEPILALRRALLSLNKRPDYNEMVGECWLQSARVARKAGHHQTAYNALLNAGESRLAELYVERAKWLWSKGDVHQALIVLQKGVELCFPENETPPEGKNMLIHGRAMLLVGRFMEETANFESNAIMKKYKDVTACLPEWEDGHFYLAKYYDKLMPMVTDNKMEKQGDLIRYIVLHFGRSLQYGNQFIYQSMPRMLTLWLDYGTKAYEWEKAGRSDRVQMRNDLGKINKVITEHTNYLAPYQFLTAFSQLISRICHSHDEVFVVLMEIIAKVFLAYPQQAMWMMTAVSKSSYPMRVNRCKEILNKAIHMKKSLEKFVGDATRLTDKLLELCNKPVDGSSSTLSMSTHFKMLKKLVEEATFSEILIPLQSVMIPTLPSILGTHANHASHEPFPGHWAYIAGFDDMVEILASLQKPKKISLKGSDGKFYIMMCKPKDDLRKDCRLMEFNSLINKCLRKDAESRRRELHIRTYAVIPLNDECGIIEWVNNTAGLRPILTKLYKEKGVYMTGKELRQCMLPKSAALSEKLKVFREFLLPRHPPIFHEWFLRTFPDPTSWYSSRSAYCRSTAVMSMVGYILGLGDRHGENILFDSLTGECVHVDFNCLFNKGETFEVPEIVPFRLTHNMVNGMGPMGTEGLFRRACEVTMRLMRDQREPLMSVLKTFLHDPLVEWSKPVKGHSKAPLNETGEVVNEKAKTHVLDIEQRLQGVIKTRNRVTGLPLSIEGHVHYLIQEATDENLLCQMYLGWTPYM

IC50 [µM]	Structure (SMILES)
> 10	CC(C)n1c(=O)n(C)c2nnc3cc(F)c(-c4ccc(OCCCN5CC[C@@H](F)C5)nc4)cc3c21 [US12226414, Example 15]
> 10	CC(C)n1c(=O)n(C)c2nnc3cc(F)c(-c4ccc(OCCCN5CC[C@H](F)C5)nc4)cc3c21 [US12226414, Example 14]
